How the values were obtained:
[1] = target: T1, Broad substrate specificity ATP-binding cassette transporter ABCG2 (Homo sapiens, UniProt Q9UNQ0); test: TP_TRANSPORTER: inhibition of E1S uptake by Cortisol at a concentration of 30uM in membrane vesicle from BCRP-expressing K562 cells; type: functional, cell membranes; set-up: scale not given: the % may be the effect or the level left; conditions: k562, 30 µM
T1 sequence (Q9UNQ0 whole entry): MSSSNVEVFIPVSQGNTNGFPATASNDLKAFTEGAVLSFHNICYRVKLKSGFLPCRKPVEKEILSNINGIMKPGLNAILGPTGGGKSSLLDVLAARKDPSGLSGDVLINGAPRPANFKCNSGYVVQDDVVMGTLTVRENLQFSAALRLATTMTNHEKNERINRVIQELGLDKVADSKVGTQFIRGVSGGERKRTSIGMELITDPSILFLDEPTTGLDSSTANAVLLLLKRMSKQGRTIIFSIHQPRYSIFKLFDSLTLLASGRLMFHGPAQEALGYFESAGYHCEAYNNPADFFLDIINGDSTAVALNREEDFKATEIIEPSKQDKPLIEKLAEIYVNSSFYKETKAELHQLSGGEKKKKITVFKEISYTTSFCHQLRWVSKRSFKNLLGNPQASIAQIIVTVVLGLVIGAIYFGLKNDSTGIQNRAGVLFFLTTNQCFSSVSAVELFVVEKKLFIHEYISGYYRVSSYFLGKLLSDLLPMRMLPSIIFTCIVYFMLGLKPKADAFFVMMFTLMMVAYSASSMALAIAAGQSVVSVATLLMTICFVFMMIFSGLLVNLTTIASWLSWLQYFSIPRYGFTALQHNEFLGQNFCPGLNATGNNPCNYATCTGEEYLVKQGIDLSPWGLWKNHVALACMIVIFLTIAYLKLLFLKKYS

[2] = target: T1, Broad substrate specificity ATP-binding cassette transporter ABCG2; test: TP_TRANSPORTER: uptake in BCRP-expressing LLC-PK1 cells; type: functional, cell-based; conditions: pig
BCRP (ABCG2) [3] = target: T2, BCRP (ABCG2) (Homo sapiens, UniProt Q9UNQ0); test: TP_TRANSPORTER: inhibition of E1S uptake by Taurolithocholate at a concentration of 30uM in membrane vesicle from BCRP-expressing K562 cells; type: functional, cell membranes; set-up: scale not given: the % may be the effect or the level left; conditions: membrane vesicles from BCRP-expressing K562 cells, probe E1S, read-out: Activity
T2 sequence (Q9UNQ0 whole entry): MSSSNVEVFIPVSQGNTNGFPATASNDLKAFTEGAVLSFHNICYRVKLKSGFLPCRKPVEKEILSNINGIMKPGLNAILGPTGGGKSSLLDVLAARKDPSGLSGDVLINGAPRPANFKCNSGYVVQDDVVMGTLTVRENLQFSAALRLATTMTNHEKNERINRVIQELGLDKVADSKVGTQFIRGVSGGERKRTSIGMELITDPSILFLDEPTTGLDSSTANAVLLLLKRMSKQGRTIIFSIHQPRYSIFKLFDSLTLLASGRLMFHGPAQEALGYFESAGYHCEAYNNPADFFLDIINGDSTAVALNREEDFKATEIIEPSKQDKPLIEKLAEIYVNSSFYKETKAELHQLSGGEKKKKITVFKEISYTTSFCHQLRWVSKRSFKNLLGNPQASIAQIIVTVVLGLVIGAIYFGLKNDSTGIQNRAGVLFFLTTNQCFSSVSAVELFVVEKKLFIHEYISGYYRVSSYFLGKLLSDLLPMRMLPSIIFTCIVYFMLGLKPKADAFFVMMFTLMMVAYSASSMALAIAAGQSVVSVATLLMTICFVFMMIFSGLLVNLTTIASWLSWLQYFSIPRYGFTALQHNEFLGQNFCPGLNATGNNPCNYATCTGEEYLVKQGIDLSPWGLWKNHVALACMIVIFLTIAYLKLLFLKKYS

BCRP (ABCG2) [4] = target: T2, BCRP (ABCG2); test: TP_TRANSPORTER: inhibition of E1S uptake by 17beta-estradiol at a concentration of 30uM in membrane vesicle from BCRP-expressing K562 cells; type: functional, cell membranes; set-up: scale not given: the % may be the effect or the level left; conditions: membrane vesicles from BCRP-expressing K562 cells, probe E1S, read-out: Activity
[5] = target: T1, Broad substrate specificity ATP-binding cassette transporter ABCG2; test: TP_TRANSPORTER: efflux in BCRP-expressing LLC-PK1 cells; type: functional, cell-based; conditions: pig
BCRP (ABCG2) [6] = target: T2, BCRP (ABCG2); test: TP_TRANSPORTER: inhibition of E1S uptake by 17beta-estradiol 3-sulfate at a concentration of 30uM in membrane vesicle from BCRP-expressing K562 cells; type: functional, cell membranes; set-up: scale not given: the % may be the effect or the level left; conditions: membrane vesicles from BCRP-expressing K562 cells, probe E1S, read-out: Activity
[7] = target: T1, Broad substrate specificity ATP-binding cassette transporter ABCG2; test: TP_TRANSPORTER: drug resistance in BCRP-expressing LLC-PK1 cells; type: functional, cell-based; conditions: pig
BCRP (ABCG2) [8] = target: T2, BCRP (ABCG2); test: TP_TRANSPORTER: inhibition of E1S uptake by Dehydroepiandrosterone-3-sulfate at a concentration of 30uM in membrane vesicle from BCRP-expressing K562 cells; type: functional, cell membranes; set-up: scale not given: the % may be the effect or the level left; conditions: membrane vesicles from BCRP-expressing K562 cells, probe E1S, read-out: Activity
BCRP (ABCG2) [9] = target: T2, BCRP (ABCG2); test: TP_TRANSPORTER: inhibition of E1S uptake by Taurolithocholate-3-sulfate at a concentration of 30uM in membrane vesicle from BCRP-expressing K562 cells; type: functional, cell membranes; set-up: scale not given: the % may be the effect or the level left; conditions: membrane vesicles from BCRP-expressing K562 cells, probe E1S, read-out: Activity
[10] = target: T1, Broad substrate specificity ATP-binding cassette transporter ABCG2; test: TP_TRANSPORTER: inhibition of E1S uptake by 7-ethyl-10-hydroxycamptothecin at a concentration of 20uM in membrane vesicle from BCRP-expressing K562 cells; type: functional, cell membranes; set-up: scale not given: the % may be the effect or the level left; conditions: k562, 20 µM
BCRP (ABCG2) [11] = target: T2, BCRP (ABCG2); test: TP_TRANSPORTER: inhibition of E1S uptake by Estrone at a concentration of 30uM in membrane vesicle from BCRP-expressing K562 cells; type: functional, cell membranes; set-up: scale not given: the % may be the effect or the level left; conditions: membrane vesicles from BCRP-expressing K562 cells, probe E1S, read-out: Activity
[12] = substrate: C[C@]12CC[C@@H]3c4ccc(OS(=O)(=O)O)cc4CC[C@H]3[C@@H]1CCC2=O; test: TP_TRANSPORTER: uptake in membrane vesicle from BCRP-expressing K562 cells; type: functional, cell membranes

## C[C@]12CCC(=O)C=C1CC[C@@H]1[C@@H]2[C@@H](O)C[C@@]2(C)[C@H]1CC[C@]2(O)C(=O)CO [HYDROCORTISONE]
[1]
  Activity: 70%

## C[C@]12CC[C@@H]3c4ccc(OS(=O)(=O)O)cc4CC[C@H]3[C@@H]1CCC2=O [ESTRONE SULFURIC ACID]
[2]
  Activity: substrate []

## C[C@H](CCC(=O)NCCS(=O)(=O)O)[C@H]1CC[C@H]2[C@@H]3CC[C@@H]4C[C@H](O)CC[C@]4(C)[C@H]3CC[C@]12C [TAUROLITHOCHOLIC ACID]
BCRP (ABCG2) [3]
  activity at 30 µM: 20%

## C[C@]12CC[C@@H]3c4ccc(O)cc4CC[C@H]3[C@@H]1CC[C@@H]2O [ESTRADIOL]
BCRP (ABCG2) [4]
  activity at 30 µM: 50%

## C[C@]12CC[C@@H]3c4ccc(OS(=O)(=O)O)cc4CC[C@H]3[C@@H]1CC[C@@H]2O
[5]
  Activity: substrate []
BCRP (ABCG2) [6]
  activity at 30 µM: 50%

## COc1ccc2c3c([nH]c2c1)[C@H](C=C(C)C)N1C(=O)[C@@H]2CCCN2C(=O)[C@@H]1C3 [FUMITREMORGIN]
[7]
  Activity: substrate []

## O=C1c2c(O)ccc(O)c2C(=O)c2c(NCCNCCO)ccc(NCCNCCO)c21 [MITOXANTRONE]
[7]
  Activity: substrate []

## C[C@]12CC[C@H](OS(=O)(=O)O)CC1=CC[C@@H]1[C@@H]2CC[C@]2(C)C(=O)CC[C@@H]12 [PRASTERONE SULFURIC ACID]
BCRP (ABCG2) [8]
  activity at 30 µM: 50%

## C[C@H](CCC(=O)NCCS(=O)(=O)O)C1CC[C@H]2[C@@H]3CC[C@@H]4C[C@H](OS(=O)(=O)O)CC[C@]4(C)[C@H]3CC[C@]12C (some centres undefined)
BCRP (ABCG2) [9]
  activity at 30 µM: 30%

## CCc1c2c(nc3ccc(O)cc13)-c1cc3c(c(=O)n1C2)COC(=O)[C@]3(O)CC [7-ETHYL-10-HYDROXYCAMPTOTHECIN]
[10]
  Activity: 40%
[7]
  Activity: substrate []

## C[C@]12CC[C@@H]3c4ccc(O)cc4CC[C@H]3[C@@H]1CCC2=O [ESTRONE]
BCRP (ABCG2) [11]
  activity at 30 µM: 70%

B1: Broad substrate specificity ATP-binding cassette transporter ABCG2 (Homo sapiens) (protein)
chain: MSSSNVEVFIPVSQGNTNGFPATASNDLKAFTEGAVLSFHNICYRVKLKSGFLPCRKPVEKEILSNINGIMKPGLNAILGPTGGGKSSLLDVLAARKDPSGLSGDVLINGAPRPANFKCNSGYVVQDDVVMGTLTVRENLQFSAALRLATTMTNHEKNERINRVIQELGLDKVADSKVGTQFIRGVSGGERKRTSIGMELITDPSILFLDEPTTGLDSSTANAVLLLLKRMSKQGRTIIFSIHQPRYSIFKLFDSLTLLASGRLMFHGPAQEALGYFESAGYHCEAYNNPADFFLDIINGDSTAVALNREEDFKATEIIEPSKQDKPLIEKLAEIYVNSSFYKETKAELHQLSGGEKKKKITVFKEISYTTSFCHQLRWVSKRSFKNLLGNPQASIAQIIVTVVLGLVIGAIYFGLKNDSTGIQNRAGVLFFLTTNQCFSSVSAVELFVVEKKLFIHEYISGYYRVSSYFLGKLLSDLLPMRMLPSIIFTCIVYFMLGLKPKADAFFVMMFTLMMVAYSASSMALAIAAGQSVVSVATLLMTICFVFMMIFSGLLVNLTTIASWLSWLQYFSIPRYGFTALQHNEFLGQNFCPGLNATGNNPCNYATCTGEEYLVKQGIDLSPWGLWKNHVALACMIVIFLTIAYLKLLFLKKYS
[12]
  Km: 6.8 µM
